Assay results: ChEMBL document CHEMBL4229426, “Synthesis, antitumor activity evaluation and mechanistic study of novel hederacolchiside A1 derivatives bearing an aryl triazole moiety” (Bioorg Med Chem, 2018)

How the values were obtained:
Type in all cases: functional, cell-based
PC-3 = assay: Antiproliferative activity against human PC3 cells after 48 hrs by MTT assay; conditions: PC-3, 48 h
HT-29 = assay: Antiproliferative activity against human HT-29 cells after 48 hrs by MTT assay; conditions: HT-29, 48 h
HepG2 = assay: Antiproliferative activity against human HepG2 cells after 48 hrs by MTT assay; conditions: HepG2, 48 h
A549 = assay: Antiproliferative activity against human A549 cells after 48 hrs by MTT assay; conditions: A549, 48 h
HL-60 = assay: Antiproliferative activity against human HL60 cells after 48 hrs by MTT assay; conditions: HL-60, 48 h
U-937 = assay: Antiproliferative activity against human U937 cells after 48 hrs by MTT assay; conditions: U-937, 48 h

| Compound | IC50 (PC-3) [µM] | IC50 (HT-29) [µM] | IC50 (HepG2) [µM] | IC50 (A549) [µM] | IC50 (HL-60) [µM] | IC50 (U-937) [µM] |
| --- | --- | --- | --- | --- | --- | --- |
| COc1ccccc1-n1cc(CNC(=O)[C@]23CCC(C)(C)C[C@H]2C2=CC[C@@H]4[C@@]5(C)CC[C@H](O[C@@H]6OC[C@H](O[C@@H]7O[C@H](CO)[C@@H](O)[C@H](O)[C@H]7O)[C@H](O)[C@H]6O[C@@H]6O[C@@H](C)[C@H](O)[C@@H](O)[C@H]6O)C(C)(C)[C@@H]5CC[C@@]4(C)[C@]2(C)CC3)nn1 | 38 | 44.4 | 17.7 | 6.99 | 12.2 | 7.73 |
| Cc1cccc(-n2cc(CNC(=O)[C@]34CCC(C)(C)C[C@H]3C3=CC[C@@H]5[C@@]6(C)CC[C@H](O[C@@H]7OC[C@H](O[C@@H]8O[C@H](CO)[C@@H](O)[C@H](O)[C@H]8O)[C@H](O)[C@H]7O[C@@H]7O[C@@H](C)[C@H](O)[C@@H](O)[C@H]7O)C(C)(C)[C@@H]6CC[C@@]5(C)[C@]3(C)CC4)nn2)c1 | 3.93 | 4.33 | 3.49 | 0.18 | 4.64 | 3.93 |
| C[C@@H]1O[C@@H](O[C@H]2[C@H](O[C@H]3CC[C@]4(C)[C@H]5CC=C6[C@@H]7CC(C)(C)CC[C@]7(C(=O)NCc7cn(-c8ccccc8Br)nn7)CC[C@@]6(C)[C@]5(C)CC[C@H]4C3(C)C)OC[C@H](O[C@@H]3O[C@H](CO)[C@@H](O)[C@H](O)[C@H]3O)[C@@H]2O)[C@H](O)[C@H](O)[C@H]1O | 5.29 | 5.11 | 2.95 | 2.08 | 3.11 | 0.78 |
| C[C@@H]1O[C@@H](O[C@H]2[C@H](O[C@H]3CC[C@]4(C)[C@H]5CC=C6[C@@H]7CC(C)(C)CC[C@]7(C(=O)NCc7cn(-c8ccccc8F)nn7)CC[C@@]6(C)[C@]5(C)CC[C@H]4C3(C)C)OC[C@H](O[C@@H]3O[C@H](CO)[C@@H](O)[C@H](O)[C@H]3O)[C@@H]2O)[C@H](O)[C@H](O)[C@H]1O | 39.3 | 30.9 | 5.39 | 7.09 | 5.45 | 4.51 |
| C[C@@H]1O[C@@H](O[C@H]2[C@H](O[C@H]3CC[C@]4(C)[C@H]5CC=C6[C@@H]7CC(C)(C)CC[C@]7(C(=O)NCc7cn(-c8ccc(C(F)(F)F)cc8)nn7)CC[C@@]6(C)[C@]5(C)CC[C@H]4C3(C)C)OC[C@H](O[C@@H]3O[C@H](CO)[C@@H](O)[C@H](O)[C@H]3O)[C@@H]2O)[C@H](O)[C@H](O)[C@H]1O | 3.98 | 4.56 | 2.45 | 4.9 | 5.23 | 0.95 |
| COc1cccc(-n2cc(CNC(=O)[C@]34CCC(C)(C)C[C@H]3C3=CC[C@@H]5[C@@]6(C)CC[C@H](O[C@@H]7OC[C@H](O[C@@H]8O[C@H](CO)[C@@H](O)[C@H](O)[C@H]8O)[C@H](O)[C@H]7O[C@@H]7O[C@@H](C)[C@H](O)[C@@H](O)[C@H]7O)C(C)(C)[C@@H]6CC[C@@]5(C)[C@]3(C)CC4)nn2)c1 | 0.23 | 3.48 | 1.66 | 2.45 | 5.66 | 5.9 |
| C[C@@H]1O[C@@H](O[C@H]2[C@H](O[C@H]3CC[C@]4(C)[C@H]5CC=C6[C@@H]7CC(C)(C)CC[C@]7(C(=O)NCc7cn(-c8cccc(F)c8)nn7)CC[C@@]6(C)[C@]5(C)CC[C@H]4C3(C)C)OC[C@H](O[C@@H]3O[C@H](CO)[C@@H](O)[C@H](O)[C@H]3O)[C@@H]2O)[C@H](O)[C@H](O)[C@H]1O | 0.72 | 2.23 | 0.9 | 4.25 | 1.32 | 3.12 |
| C[C@@H]1O[C@@H](O[C@H]2[C@H](O[C@H]3CC[C@]4(C)[C@H]5CC=C6[C@@H]7CC(C)(C)CC[C@]7(C(=O)NCc7cn(-c8ccccc8[N+](=O)[O-])nn7)CC[C@@]6(C)[C@]5(C)CC[C@H]4C3(C)C)OC[C@H](O[C@@H]3O[C@H](CO)[C@@H](O)[C@H](O)[C@H]3O)[C@@H]2O)[C@H](O)[C@H](O)[C@H]1O | 50.5 | 7.76 | 34.9 | 54.9 | 36.7 | 40.1 |
| C[C@@H]1O[C@@H](O[C@H]2[C@H](O[C@H]3CC[C@]4(C)[C@H]5CC=C6[C@@H]7CC(C)(C)CC[C@]7(C(=O)NCc7cn(-c8c(Cl)cccc8Cl)nn7)CC[C@@]6(C)[C@]5(C)CC[C@H]4C3(C)C)OC[C@H](O[C@@H]3O[C@H](CO)[C@@H](O)[C@H](O)[C@H]3O)[C@@H]2O)[C@H](O)[C@H](O)[C@H]1O | 41.9 | 37.8 | 23 | 6.68 | 28.2 | 18.4 |

More lines, in order of falling IC50 (PC-3), values ahead:

| IC50 (PC-3) [µM] | IC50 (HT-29) [µM] | IC50 (HepG2) [µM] | IC50 (A549) [µM] | IC50 (HL-60) [µM] | IC50 (U-937) [µM] | Compound |
| --- | --- | --- | --- | --- | --- | --- |
| 8.96 | 7.66 | 3.31 | 6.08 | 4.47 | 8.48 | Cc1cccc(C)c1-n1cc(CNC(=O)[C@]23CCC(C)(C)C[C@H]2C2=CC[C@@H]4[C@@]5(C)CC[C@H](O[C@@H]6OC[C@H](O[C@@H]7O[C@H](CO)[C@@H](O)[C@H](O)[C@H]7O)[C@H](O)[C@H]6O[C@@H]6O[C@@H](C)[C@H](O)[C@@H](O)[C@H]6O)C(C)(C)[C@@H]5CC[C@@]4(C)[C@]2(C)CC3)nn1 |
| 5.64 | 41 | 2.13 | 1.87 | 4.52 | 0.94 | C[C@@H]1O[C@@H](O[C@H]2[C@H](O[C@H]3CC[C@]4(C)[C@H]5CC=C6[C@@H]7CC(C)(C)CC[C@]7(C(=O)NCc7cn(-c8ccc(Cl)cc8)nn7)CC[C@@]6(C)[C@]5(C)CC[C@H]4C3(C)C)OC[C@H](O[C@@H]3O[C@H](CO)[C@@H](O)[C@H](O)[C@H]3O)[C@@H]2O)[C@H](O)[C@H](O)[C@H]1O |
| 0.85 | 4.77 | 4.21 | 5.41 | 3.13 | 2.37 | C[C@@H]1O[C@@H](O[C@H]2[C@H](O[C@H]3CC[C@]4(C)[C@H]5CC=C6[C@@H]7CC(C)(C)CC[C@]7(C(=O)O)CC[C@@]6(C)[C@]5(C)CC[C@H]4C3(C)C)OC[C@H](O[C@@H]3O[C@H](CO)[C@@H](O)[C@H](O)[C@H]3O)[C@@H]2O)[C@H](O)[C@H](O)[C@H]1O [HEDERACOLCHISIDE A1] |
| 0.49 | 1.77 | 7.29 | 0.89 | 0.99 | 0.72 | C[C@@H]1O[C@@H](O[C@H]2[C@H](O[C@H]3CC[C@]4(C)[C@H]5CC=C6[C@@H]7CC(C)(C)CC[C@]7(C(=O)NCc7cn(-c8cccc(Br)c8)nn7)CC[C@@]6(C)[C@]5(C)CC[C@H]4C3(C)C)OC[C@H](O[C@@H]3O[C@H](CO)[C@@H](O)[C@H](O)[C@H]3O)[C@@H]2O)[C@H](O)[C@H](O)[C@H]1O |
